According to the NIST ThermoML archive (doi:10.1021/je900400v):
± gives the expanded uncertainty stated by the source.

Details: Liquid, Closed cell (Static) method

Compound	vapor or sublimation pressure (271.88 K) [kPa]	vapor or sublimation pressure (295.53 K) [kPa]	vapor or sublimation pressure (300.47 K) [kPa]	vapor or sublimation pressure (303.11 K) [kPa]	vapor or sublimation pressure (306.5 K) [kPa]	vapor or sublimation pressure (310.48 K) [kPa]	vapor or sublimation pressure (312.64 K) [kPa]	vapor or sublimation pressure (318.16 K) [kPa]	vapor or sublimation pressure (272.33 K) [kPa]	vapor or sublimation pressure (279.64 K) [kPa]	vapor or sublimation pressure (299.34 K) [kPa]	vapor or sublimation pressure (302.24 K) [kPa]	vapor or sublimation pressure (312.33 K) [kPa]	vapor or sublimation pressure (317.63 K) [kPa]
FC(F)(F)C1(F)OC1(F)F (centres undefined) [2,2,3-trifluoro-3-(trifluoromethyl)oxirane]	302.2 ± 1.5	649.9 ± 2.1	745.6 ± 2.2	798.5 ± 2.3	874.7 ± 2.5	970.1 ± 2.7	1024.9 ± 2.9	1175.3 ± 3.1	–	–	–	–	–	–
FC(F)=C(F)C(F)(F)F [hexafluoropropene]	–	–	–	–	–	–	–	–	327.1 ± 1.4	420.7 ± 1.7	763.3 ± 2.2	825.7 ± 2.4	1077.3 ± 2.8	1232.1 ± 3.1
